{
  "source": "patent US9682026B2",
  "about": "“Oral care product and methods of use and manufacture thereof” (Colgate-Palmolive Company, priority 2008, dated 2017)",
  "tested_on": "S. sanguis",
  "test": "Ammonia production by S. sanguis at pH 4.0",
  "assay_type": "cell-based",
  "details": "5 millimolar amino acid, 0.1% sucrose, pH 4.0, 37° C., 30 minutes; mean of 6 trials",
  "description": "An overnight culture of S. sanguis was grown at 37° C. in trypticase soy broth (Becton Dickinson, Sparks, Md.). The culture was centrifuged at 5,000 rpm for 5 minutes at 1 milliliter at a time into preweighed tubes in order to accumulate approximately 5 milligrams of wet pellet weight. The pellet was then resuspended into 20 millimolar potassium phosphate buffer (J T Baker, Phillipsburg, N.J.), pH 4.0, to simulate a stressed environment for the bacterial cell where ammonia would be produced for survival. The final concentration was 5 milligram per milliliter. To this final concentration, a 5 millimolar final concentration of L-arginine, L-citrulline, or L-ornithine was added along with a 0.1% final concentration of sucrose (VWR, West Chester, Pa.). This mixture was then incubated at 37° C. in a shaking water bath for 30 minutes before ammonia production was determined.\nIn order to analyze for ammonia, an Ammonia Assay kit was used from Diagnostic Chemicals Limited (Oxford, Conn.). The intended use of this specific kit is for the in vitro quantification of ammonia in plasma, but the procedure was modified in order to determine and quantify the ammonia production in plaque and/or bacteria.",
  "data": [
    {"smiles": "N=C(N)NCCC[C@H](N)C(=O)O", "note": "[L-Arginine, L-arginine]", "values": [
      {"measurement": "Ammonia (ppm), Mean", "value": 1.06, "unit": "ppm"}
    ]},
    {"smiles": "NC(=O)NCCC[C@H](N)C(=O)O", "note": "[L-Citrulline, L-citrulline]", "values": [
      {"measurement": "Ammonia (ppm), Mean", "value": 0.951, "unit": "ppm"}
    ]},
    {"smiles": "NCCC[C@H](N)C(=O)O", "note": "[L-Ornithine, L-ornithine]", "values": [
      {"measurement": "Ammonia (ppm), Mean", "value": 0.134, "unit": "ppm"}
    ]}
  ]
}
